Numbered stars: 1 amine (or outer) side, 2 acyl side, 3 side chain; on linkers, the order of the positions; unused ones are H or OH. Bridge positions count the residues as written; N and C are the ends. Square brackets hold non-standard residues; d marks the D form. Peptide text beside a SMILES is read from it. * marks the point of attachment. ξ: configuration not given here. X47 = O=C([C@H](Cc1ccc(-c2cccc(OC(F)(F)F)c2)cc1)N[*:1])[*:2]; Phe(4-COOH) = N[C@@H](Cc1ccc(C(=O)O)cc1)C(=O)O; Phe(4-CH2NH2) = NCc1ccc(C[C@H](N)C(=O)O)cc1; Bip = N[C@@H](Cc1ccc(-c2ccccc2)cc1)C(=O)O; Phe(3-CN) = N#Cc1cccc(C[C@H](N)C(=O)O)c1; Phe(3-Me) = Cc1cccc(C[C@H](N)C(=O)O)c1; Val(3-OH) = CC(C)(O)[C@H](N)C(=O)O; 2Thi = N[C@@H](Cc1cccs1)C(=O)O; Cha = N[C@@H](CC1CCCCC1)C(=O)O; Ile(3ξ) = CCC(C)[C@H](N)C(=O)O; Thr(3ξ) = CC(O)[C@H](N)C(=O)O; dDab = NCC[C@@H](N)C(=O)O; hSer = N[C@@H](CCO)C(=O)O; Carboxymethyl = O=C(O)C*; NMeA = CN[C@@H](C)C(=O)O; Orn = NCCC[C@H](N)C(=O)O; Pra = C#CC[C@H](N)C(=O)O; Dab = NCC[C@H](N)C(=O)O; Dap = NC[C@H](N)C(=O)O
target: T1, PE-labeled human PD-L1-Ig binding to Jurkat cell line over-expressing human PD-1 (Jurkat-PD-1) (Homo sapiens, UniProt Q15116); assay: Jurkat-PD-1 Cell Binding High-Content Screening Assay (CBA): Method 1; conditions: Jurkat HPDL1 PD1 IC50 (uM) (Method 1), Jurkat-hPD-1 cells, PE-labeled PD-L1-Ig 20 nM final
T1 construct: expressed in transfected cells; host or cells: Jurkat
T1 sequence (Q15116 25-288): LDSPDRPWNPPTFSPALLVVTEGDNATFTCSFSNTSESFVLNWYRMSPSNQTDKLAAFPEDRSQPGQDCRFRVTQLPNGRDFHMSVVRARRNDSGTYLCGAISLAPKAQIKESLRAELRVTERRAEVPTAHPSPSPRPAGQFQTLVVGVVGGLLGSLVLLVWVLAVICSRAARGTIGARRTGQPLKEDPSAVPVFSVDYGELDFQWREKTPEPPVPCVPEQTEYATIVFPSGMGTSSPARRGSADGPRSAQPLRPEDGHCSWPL

| Structure (SMILES) | IC50 |
| --- | --- |
| Cc1cccc(C[C@@H]2NC(=O)[C@H](CC(=O)O)NC(=O)[C@H](Cc3ccccc3)NC(=O)[C@H](CN)NC(=O)CSC[C@@H](C(=O)N[C@@H](C)C(N)=O)NC(=O)[C@H](CO)NC(=O)[C@H](Cc3ccccc3)NC(=O)[C@H](CC(C)C)NC(=O)[C@H](CC(N)=O)NC(=O)[C@@H](CC(C)C)NC(=O)[C@H](C)N(C)C(=O)[C@H](Cc3ccccc3)NC(=O)[C@H](Cc3ccc(-c4ccccc4)cc3)NC(=O)[C@H](CC(C)C)NC2=O)c1 [Compound 1594] ({CH2CO}-[Dap]FD[Phe(3-Me)]L[Bip]F[NMeA][dL]NLFSCA-NH2; thioether N-14) | 0.01 µM |

same assay, conditions: Jurkat-hPD-1 cells, PE-labeled PD-L1-Ig 20 nM final; read-out: Jurkat HPDL1 PD1 IC50 (uM) (Method 1)

| Structure (SMILES) | IC50 |
| --- | --- |
| CC(C)C[C@@H]1NC(=O)[C@H](CCN)NC(=O)[C@@H](CC(C)C)NC(=O)[C@H](C)N(C)C(=O)[C@H](CCCNC(=N)N)NC(=O)[C@H](Cc2ccc(-c3cccc(OC(F)(F)F)c3)cc2)NC(=O)[C@H](C(C)C)NC(=O)[C@H](Cc2c[nH]c3ccccc23)NC(=O)[C@H](CC(=O)O)NC(=O)[C@H](Cc2ccc(O)cc2)NC(=O)[C@H](CC(N)=O)NC(=O)CSC[C@@H](C(=O)N[C@@H](C)C(N)=O)NC(=O)[C@H]([C@@H](C)O)NC(=O)[C@H](C(C)C)NC1=O [Compound 1228] ({CH2CO}-NYDWV[X47]R[NMeA][dL][Dab]LVTCA-NH2; thioether N-14) | 0.9 µM |
| CC(C)C[C@@H]1NC(=O)[C@H](CCN)NC(=O)[C@@H](CC(C)C)NC(=O)[C@H](C)N(C)C(=O)[C@H](CCCNC(=N)N)NC(=O)[C@H](Cc2ccc(-c3ccccc3)cc2)NC(=O)[C@H](C(C)C)NC(=O)[C@H](Cc2cccc(C#N)c2)NC(=O)[C@H](CC(=O)O)NC(=O)[C@H](Cc2ccc(OCC(=O)O)cc2)NC(=O)[C@H](CN)NC(=O)CSC[C@@H](C(=O)N[C@@H](C)C(N)=O)NC(=O)[C@H]([C@@H](C)O)NC(=O)[C@H](C(C)C)NC1=O [Compound 1449] ({CH2CO}-[Dap]Y(Carboxymethyl)D[Phe(3-CN)]V[Bip]R[NMeA][dL][Dab]LVTCA-NH2; thioether N-14) | 0.17 µM |
| CC(C)C[C@@H]1NC(=O)[C@H](Cc2c[nH]c3ccccc23)NC(=O)[C@H](CC(=O)O)NC(=O)[C@H](Cc2ccc(OCC(=O)O)cc2)NC(=O)[C@H](Cc2cnc[nH]2)NC(=O)CSC[C@@H](C(=O)N[C@@H](C)C(N)=O)NC(=O)[C@H](CO)NC(=O)[C@H](C(C)C)NC(=O)[C@H](CC(C)C)NC(=O)[C@H](CC(N)=O)NC(=O)[C@@H](C)NC(=O)[C@H](C)N(C)C(=O)[C@H](C(C)C)NC(=O)[C@H](Cc2ccc(-c3ccccc3)cc2)NC1=O [Compound 1799] ({CH2CO}-HY(Carboxymethyl)DWL[Bip]V[NMeA][dA]NLVSCA-NH2; thioether N-14) | 0.18 µM |
| CC(C)C[C@@H]1NC(=O)[C@H](Cc2c[nH]c3ccccc23)NC(=O)[C@H](CC(=O)O)NC(=O)[C@H](Cc2ccc(O)cc2)NC(=O)[C@H](Cc2ccccc2)NC(=O)CSC[C@@H](C(=O)NCC(N)=O)NC(=O)[C@H](CO)NC(=O)[C@H](C(C)C)NC(=O)[C@H](CC(C)C)NC(=O)[C@H](CC(N)=O)NC(=O)[C@H](CCO)NC(=O)[C@H](C)N(C)C(=O)[C@H](C(C)C)NC(=O)[C@H](Cc2ccc(-c3ccccc3)cc2)NC1=O [Compound 1814] ({CH2CO}-FYDWL[Bip]V[NMeA][hSer]NLVSCG-NH2; thioether N-14) | 0.3 µM |
| CCC(C)[C@@H]1NC(=O)[C@H](Cc2ccc(-c3ccccc3)cc2)NC(=O)[C@H](CC(C)C)NC(=O)[C@H](Cc2c[nH]c3ccccc23)NC(=O)[C@H](CC(=O)O)NC(=O)[C@H](Cc2ccc(OCC(=O)O)cc2)NC(=O)[C@H](C(C)O)NC(=O)CSC[C@@H](C(=O)N[C@@H](CC(N)=O)C(=O)O)NC(=O)[C@H](CC(C)C)NC(=O)[C@H](C(C)C)NC(=O)[C@H](CC(C)C)NC(=O)[C@H](CCN)NC(=O)[C@@H](CC(C)C)NC(=O)[C@H](C)N(C)C1=O (stereo partly drawn) [Compound 2224] ({CH2CO}-[Thr(3ξ)]Y(Carboxymethyl)DWL[Bip][Ile(3ξ)][NMeA][dL][Dab]LVLCN-OH; thioether N-14) | 0.24 µM |
| CCC(C)[C@@H]1NC(=O)[C@H](Cc2ccc(-c3ccccc3)cc2)NC(=O)[C@H](C(C)C)NC(=O)[C@H](Cc2c[nH]c3ccccc23)NC(=O)[C@H](CC(=O)O)NC(=O)[C@H](Cc2ccc(O)cc2)NC(=O)[C@H](Cc2cccs2)NC(=O)CSC[C@@H](C(=O)N2CCC[C@H]2C(N)=O)NC(=O)[C@H](C(C)O)NC(=O)[C@H](C(C)(C)O)NC(=O)[C@H](CC2CCCCC2)NC(=O)[C@H](CC(N)=O)NC(=O)[C@@H](CC(C)C)NC(=O)[C@H](C)N(C)C1=O (stereo partly drawn) [Compound 2174] ({CH2CO}-[2Thi]YDWV[Bip][Ile(3ξ)][NMeA][dL]N[Cha][Val(3-OH)][Thr(3ξ)]CP-NH2; thioether N-14) | 0.31 µM |
| Cc1cccc(C[C@@H]2NC(=O)[C@H](CC(=O)O)NC(=O)[C@H](Cc3ccc(C(=O)O)cc3)NC(=O)[C@H](Cc3ccc(OCC(=O)O)cc3)NC(=O)CSC[C@@H](C(N)=O)NC(=O)[C@H](CO)NC(=O)[C@H](C(C)C)NC(=O)[C@H](CC(C)C)NC(=O)[C@H](Cc3c[nH]cn3)NC(=O)[C@@H](CC(C)C)NC(=O)[C@H](C)N(C)C(=O)[C@H](C(C)C)NC(=O)[C@H](Cc3ccc(-c4ccccc4)cc3)NC(=O)[C@H](Cc3ccc(CN)cc3)NC2=O)c1 [Compound 1876] ({CH2CO}-Y(Carboxymethyl)[Phe(4-COOH)]D[Phe(3-Me)][Phe(4-CH2NH2)][Bip]V[NMeA][dL]HLVSC-NH2; thioether N-14) | 0.34 µM |

Now from value to compound:

| IC50 | Structure (SMILES) |
| --- | --- |
| 0.11 µM | C#CC[C@H](NC(=O)CNC(=O)[C@@H]1CSCC(=O)N[C@@H]([C@@H](C)O)C(=O)N[C@@H](Cc2ccc(OCC(=O)O)cc2)C(=O)N[C@@H](CC(=O)O)C(=O)N[C@@H](Cc2cccc(C)c2)C(=O)N[C@@H](Cc2ccc(OCC(=O)O)cc2)C(=O)N[C@@H](Cc2ccc(-c3ccccc3)cc2)C(=O)N[C@@H](Cc2ccc(OCC(=O)O)cc2)C(=O)N(C)[C@@H](C)C(=O)N[C@H](CC(C)C)C(=O)N[C@@H](CCN)C(=O)N[C@@H](CC2CCCCC2)C(=O)N[C@@H](C(C)(C)O)C(=O)N[C@@H](CCC(=O)O)C(=O)N1)C(N)=O [Compound 1939] ({CH2CO}-TY(Carboxymethyl)D[Phe(3-Me)]Y(Carboxymethyl)[Bip]Y(Carboxymethyl)[NMeA][dL][Dab][Cha][Val(3-OH)]ECG[Pra]-NH2; thioether N-14) |
| 0.02 µM | CCC(C)[C@@H]1NC(=O)[C@H](Cc2ccc(-c3ccccc3)cc2)NC(=O)[C@H](C(C)C)NC(=O)[C@H](Cc2c[nH]c3ccccc23)NC(=O)[C@H](CC(=O)O)NC(=O)[C@H](Cc2ccc(O)cc2)NC(=O)[C@H](Cc2ccc(CN)cc2)NC(=O)CSC[C@@H](C(=O)N[C@@H](C)C(N)=O)NC(=O)[C@H](C(C)O)NC(=O)[C@H](C(C)C)NC(=O)[C@H](CC2CCCCC2)NC(=O)[C@H](CCN)NC(=O)[C@@H](CC(C)C)NC(=O)[C@H](C)N(C)C1=O (stereo partly drawn) [Compound 2062] ({CH2CO}-[Phe(4-CH2NH2)]YDWV[Bip][Ile(3ξ)][NMeA][dL][Dab][Cha]V[Thr(3ξ)]CA-NH2; thioether N-14) |
| 0.01 µM | CC(C)C[C@H]1NC(=O)[C@H](C)N(C)C(=O)[C@H](C(C)C)NC(=O)[C@H](Cc2ccc(-c3ccccc3)cc2)NC(=O)[C@H](C(C)C)NC(=O)[C@H](Cc2c[nH]c3ccccc23)NC(=O)[C@H](CC(=O)O)NC(=O)[C@H](Cc2ccc(O)cc2)NC(=O)[C@H](Cc2ccc(OCC(=O)O)cc2)NC(=O)CSC[C@@H](C(=O)N[C@@H](C)C(N)=O)NC(=O)[C@H]([C@@H](C)O)NC(=O)[C@H](C(C)C)NC(=O)[C@H](CC2CCCCC2)NC(=O)[C@H](CCN)NC1=O [Compound 1507] ({CH2CO}-Y(Carboxymethyl)YDWV[Bip]V[NMeA][dL][Dab][Cha]VTCA-NH2; thioether N-14) |
| 0.06 µM | CC(C)C[C@@H]1NC(=O)[C@H](CCN)NC(=O)[C@@H](CC(C)C)NC(=O)[C@H](C)N(C)C(=O)[C@H](CCCN)NC(=O)[C@H](Cc2ccc(-c3ccccc3)cc2)NC(=O)[C@H](C(C)C)NC(=O)[C@H](Cc2c[nH]c3ccccc23)NC(=O)[C@H](CC(=O)O)NC(=O)[C@H](Cc2ccc(O)cc2)NC(=O)[C@H](Cc2ccccc2)NC(=O)CSC[C@@H](C(=O)N[C@@H](C)C(N)=O)NC(=O)[C@H]([C@@H](C)O)NC(=O)[C@H](C(C)C)NC1=O [Compound 1121] ({CH2CO}-FYDWV[Bip][Orn][NMeA][dL][Dab]LVTCA-NH2; thioether N-14) |
| 0.1 µM | CCC(C)[C@@H]1NC(=O)[C@H](Cc2ccc(-c3ccccc3)cc2)NC(=O)[C@H](C(C)C)NC(=O)[C@H](Cc2c[nH]c3ccccc23)NC(=O)[C@H](CC(=O)O)NC(=O)[C@H](Cc2ccc(O)cc2)NC(=O)[C@H](CC(N)=O)NC(=O)CSC[C@@H](C(=O)N[C@@H](CC(N)=O)C(N)=O)NC(=O)[C@H](C(C)O)NC(=O)[C@H](C(C)C)NC(=O)[C@H](CC(C)C)NC(=O)[C@H](CCN)NC(=O)[C@@H](CC(C)C)NC(=O)[C@H](C)N(C)C1=O (stereo partly drawn) [Compound 2069] ({CH2CO}-NYDWV[Bip][Ile(3ξ)][NMeA][dL][Dab]LV[Thr(3ξ)]CN-NH2; thioether N-14) |
| 0.12 µM | Cc1cccc(C[C@@H]2NC(=O)[C@H](CC(=O)O)NC(=O)[C@H](Cc3ccc(OCC(=O)O)cc3)NC(=O)[C@H](C(C)O)NC(=O)CSC[C@@H](C(=O)N[C@H](CCN)C(N)=O)NC(=O)[C@H](C(C)(C)O)NC(=O)[C@H](C(C)C)NC(=O)[C@H](CC3CCCCC3)NC(=O)[C@H](CCN)NC(=O)[C@@H](CC(C)C)NC(=O)[C@H](C)N(C)C(=O)[C@H](Cc3ccc(OCC(=O)O)cc3)NC(=O)[C@H](Cc3ccc(-c4ccccc4)cc3)NC(=O)[C@H](Cc3ccc(C(=O)O)cc3)NC2=O)c1 (stereo partly drawn) [Compound 2156] ({CH2CO}-[Thr(3ξ)]Y(Carboxymethyl)D[Phe(3-Me)][Phe(4-COOH)][Bip]Y(Carboxymethyl)[NMeA][dL][Dab][Cha]V[Val(3-OH)]C[dDab]-NH2; thioether N-14) |
